Measured values taken from patent US20260356819A1, “OXOISOINDOLINYL-SUBSTITUTED […] DERIVATIVE AND USE THEREOF” (GLUETACS THERAPEUTICS (SHANGHAI) CO., LTD., priority 2023, published 2026).

Assays:
GSPT1 = target: T1, GSPT1 (Homo sapiens, UniProt P15170+Q96SW2); assay: Western blot degradation of GSPT1 in hPBMCs (24 h); assay type: cell-based; conditions: compounds at 50 nM and 500 nM
T1 construct: The supernatant was aspirated as the extracted total cell protein; endogenous in cells; host or cells: human peripheral blood mononuclear cells (hPBMCs)
Method in brief: (§1)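 PBMC Western blot, 24 h treatment; test levels 50 nM and 500 nM. Band density ÷ internal control, normalised → % remaining; degradation (%) = 1 − remaining.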

MM.1S cells = assay: Inhibition of proliferation of multiple myeloma cells MM.1S (cell viability assay, 96 h); assay type: cell-based, human; conditions: read-out: inhibitory activity (IC50) against tumor cells proliferation, MM.1S
Procedure: The tumor cells used herein were cultured in a cell culture medium listed in table 2 at 37 °C in an incubator with 5% CO2. Prior to experimentation, all cell lines used were correctly identified by STR profiling, and tested negative for Mycoplasma contamination using a Mycoplasma detection kit through routine screenings.
The IC50 values of the compounds of the present disclosure (including the compounds in Table 1, and Examples 1-498) were determined using the CellTiter-Meiluncell Luminescent Cell Viability Assay Kit from Dalian Meilun Biotech Co., Ltd. The detailed procedure is as follows: Tumor cells were seeded in 96-well cell culture plates at the densities specified in Table 3. On the following day, the test compounds of the present disclosure were subjected to serial dilution. […] Subsequently, 0.5 μL of the test compound dilution was transferred into the 96-well plate containing the cells, with each well containing 100 μL of cell culture medium. […] Into the 96-well plate, the diluted test compounds and corresponding detection reagents were added, resulting in final test compound concentrations of 500 nM and 10 nM, respectively. The experimental procedure is described below using the diluted 2 μM test compound as an example.
0.5 μL of the aforementioned diluted compound of the present disclosure (including the compounds in Table 1, and Examples 1-498) was added to the seeded cells in 100 μL of medium, yielding a final test compound concentration of 10 nM. After the cells were treated with the compounds of the present disclosure for a specified period, the cell viability assay reagent was added to the culture medium according to the kit's instructions to determine cell viability. […] All controls were treated using the same procedure as the compounds of the present disclosure. The growth inhibition curves for the compounds of the present disclosure were plotted using Prism GraphPad software, and the IC50 values were calculated therefrom.

IKZF3 = target: T2, IKZF3 (Homo sapiens, UniProt Q96SW2+Q9UKT9); assay: Western blot degradation of IKZF3 in hPBMCs (24 h); assay type: cell-based; conditions: compounds at 50 nM and 500 nM
T2 construct: The supernatant was aspirated as the extracted total cell protein; endogenous in cells; host or cells: human peripheral blood mononuclear cells (hPBMCs)
Method in brief: as §1

WEE1 = target: T3, WEE1 (Homo sapiens, UniProt P30291+Q96SW2); assay: Western blot degradation of WEE1 in hPBMCs (24 h); assay type: cell-based; conditions: compounds at 50 nM and 500 nM
T3 construct: The supernatant was aspirated as the extracted total cell protein; endogenous in cells; host or cells: human peripheral blood mononuclear cells (hPBMCs)
Method in brief: as §1

IKZF1 = target: T4, IKZF1 (Homo sapiens, UniProt Q13422+Q96SW2); assay: Western blot degradation of IKZF1 in hPBMCs (24 h); assay type: cell-based; conditions: compounds at 50 nM and 500 nM
T4 construct: The supernatant was aspirated as the extracted total cell protein; endogenous in cells; host or cells: human peripheral blood mononuclear cells (hPBMCs)
Method in brief: as §1

CK1α = target: T5, CK1α (Homo sapiens, UniProt P48729+Q96SW2); assay: Western blot degradation of CK1α in hPBMCs (24 h); assay type: cell-based; conditions: compounds at 50 nM and 500 nM
T5 construct: The supernatant was aspirated as the extracted total cell protein; endogenous in cells; host or cells: human peripheral blood mononuclear cells (hPBMCs)
Method in brief: as §1

IKZF2 = target: T6, IKZF2 (Homo sapiens, UniProt Q96SW2+Q9UKS7); assay: Western blot degradation of IKZF2 in hPBMCs (24 h); assay type: cell-based; conditions: compounds at 50 nM and 500 nM
T6 construct: The supernatant was aspirated as the extracted total cell protein; endogenous in cells; host or cells: human peripheral blood mononuclear cells (hPBMCs)
Method in brief: as §1

T3 sequence (P30291 whole entry): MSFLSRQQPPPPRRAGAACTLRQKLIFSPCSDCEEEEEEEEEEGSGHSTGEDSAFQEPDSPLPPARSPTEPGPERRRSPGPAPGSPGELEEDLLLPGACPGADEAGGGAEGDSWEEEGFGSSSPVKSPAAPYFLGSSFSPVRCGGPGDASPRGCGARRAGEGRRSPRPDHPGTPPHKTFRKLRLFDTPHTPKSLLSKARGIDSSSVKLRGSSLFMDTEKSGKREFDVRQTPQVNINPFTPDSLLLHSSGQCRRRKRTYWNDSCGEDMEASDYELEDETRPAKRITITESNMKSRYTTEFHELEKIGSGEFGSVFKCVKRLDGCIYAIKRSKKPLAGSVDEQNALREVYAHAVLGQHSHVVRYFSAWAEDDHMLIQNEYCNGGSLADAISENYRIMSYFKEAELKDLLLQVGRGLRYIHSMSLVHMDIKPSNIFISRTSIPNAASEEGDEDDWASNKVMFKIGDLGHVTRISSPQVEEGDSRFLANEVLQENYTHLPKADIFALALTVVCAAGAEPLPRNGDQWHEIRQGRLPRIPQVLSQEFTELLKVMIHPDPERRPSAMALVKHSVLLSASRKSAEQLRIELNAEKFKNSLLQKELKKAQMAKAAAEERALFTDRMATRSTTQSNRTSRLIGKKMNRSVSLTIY
T3 sequence (Q96SW2 whole entry): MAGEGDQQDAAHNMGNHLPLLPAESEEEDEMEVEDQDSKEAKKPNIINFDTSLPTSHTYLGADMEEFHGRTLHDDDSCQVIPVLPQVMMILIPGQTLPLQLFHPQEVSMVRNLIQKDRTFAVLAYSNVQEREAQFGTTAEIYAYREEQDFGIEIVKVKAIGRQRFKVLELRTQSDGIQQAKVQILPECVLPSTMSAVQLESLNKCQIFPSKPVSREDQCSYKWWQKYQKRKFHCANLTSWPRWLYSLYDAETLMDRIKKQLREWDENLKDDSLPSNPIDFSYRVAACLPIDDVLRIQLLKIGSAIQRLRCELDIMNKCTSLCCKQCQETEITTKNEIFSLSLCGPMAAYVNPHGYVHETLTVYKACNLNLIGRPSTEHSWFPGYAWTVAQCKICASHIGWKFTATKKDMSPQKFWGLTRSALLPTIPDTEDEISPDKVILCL
T3 sequence (Q16531 whole entry partner): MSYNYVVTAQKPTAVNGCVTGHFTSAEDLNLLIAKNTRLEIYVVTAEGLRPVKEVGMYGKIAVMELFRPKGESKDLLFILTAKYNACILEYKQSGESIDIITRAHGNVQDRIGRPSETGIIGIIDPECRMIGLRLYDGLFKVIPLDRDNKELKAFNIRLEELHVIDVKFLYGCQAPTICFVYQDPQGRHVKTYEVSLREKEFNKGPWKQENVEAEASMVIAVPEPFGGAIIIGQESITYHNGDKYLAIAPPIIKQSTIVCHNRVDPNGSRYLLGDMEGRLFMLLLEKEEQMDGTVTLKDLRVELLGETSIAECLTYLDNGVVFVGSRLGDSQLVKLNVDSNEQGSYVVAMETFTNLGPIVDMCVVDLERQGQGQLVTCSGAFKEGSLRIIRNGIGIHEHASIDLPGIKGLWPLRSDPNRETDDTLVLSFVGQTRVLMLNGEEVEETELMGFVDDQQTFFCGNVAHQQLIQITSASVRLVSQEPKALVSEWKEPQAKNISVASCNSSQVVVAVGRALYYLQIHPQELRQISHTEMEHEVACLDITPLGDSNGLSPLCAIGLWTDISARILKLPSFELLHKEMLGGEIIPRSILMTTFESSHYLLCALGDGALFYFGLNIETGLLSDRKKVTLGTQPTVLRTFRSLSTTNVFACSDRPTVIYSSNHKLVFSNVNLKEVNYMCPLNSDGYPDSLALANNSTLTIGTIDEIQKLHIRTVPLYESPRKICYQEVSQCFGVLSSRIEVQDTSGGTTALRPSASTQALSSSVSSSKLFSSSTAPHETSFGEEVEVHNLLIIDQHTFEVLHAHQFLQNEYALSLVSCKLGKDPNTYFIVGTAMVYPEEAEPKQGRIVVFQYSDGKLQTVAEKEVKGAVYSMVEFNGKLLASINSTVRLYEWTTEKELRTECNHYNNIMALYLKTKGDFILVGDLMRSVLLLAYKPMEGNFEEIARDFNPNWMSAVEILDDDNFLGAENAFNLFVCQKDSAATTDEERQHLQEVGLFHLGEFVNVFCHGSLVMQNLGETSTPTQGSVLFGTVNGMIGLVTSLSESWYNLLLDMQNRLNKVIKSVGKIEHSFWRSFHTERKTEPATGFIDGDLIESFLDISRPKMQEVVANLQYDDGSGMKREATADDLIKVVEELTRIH
T1 sequence (P15170 whole entry): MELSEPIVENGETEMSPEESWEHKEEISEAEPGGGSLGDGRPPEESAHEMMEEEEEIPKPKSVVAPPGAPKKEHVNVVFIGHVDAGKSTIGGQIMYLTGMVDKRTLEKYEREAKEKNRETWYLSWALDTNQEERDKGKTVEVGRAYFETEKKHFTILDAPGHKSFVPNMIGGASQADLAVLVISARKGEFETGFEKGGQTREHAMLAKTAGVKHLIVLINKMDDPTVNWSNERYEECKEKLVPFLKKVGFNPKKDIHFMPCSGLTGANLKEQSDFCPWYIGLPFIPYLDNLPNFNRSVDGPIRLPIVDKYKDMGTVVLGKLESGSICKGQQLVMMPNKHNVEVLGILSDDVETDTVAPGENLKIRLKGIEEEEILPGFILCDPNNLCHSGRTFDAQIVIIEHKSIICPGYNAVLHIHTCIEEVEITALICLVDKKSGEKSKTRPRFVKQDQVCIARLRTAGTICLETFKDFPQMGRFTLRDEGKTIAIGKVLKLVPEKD
T1 sequence (Q96SW2 whole entry): as the sequence (Q96SW2 whole entry) above
T1 sequence (Q16531 whole entry partner): as the sequence (Q16531 whole entry partner) above
T5 sequence (P48729 whole entry): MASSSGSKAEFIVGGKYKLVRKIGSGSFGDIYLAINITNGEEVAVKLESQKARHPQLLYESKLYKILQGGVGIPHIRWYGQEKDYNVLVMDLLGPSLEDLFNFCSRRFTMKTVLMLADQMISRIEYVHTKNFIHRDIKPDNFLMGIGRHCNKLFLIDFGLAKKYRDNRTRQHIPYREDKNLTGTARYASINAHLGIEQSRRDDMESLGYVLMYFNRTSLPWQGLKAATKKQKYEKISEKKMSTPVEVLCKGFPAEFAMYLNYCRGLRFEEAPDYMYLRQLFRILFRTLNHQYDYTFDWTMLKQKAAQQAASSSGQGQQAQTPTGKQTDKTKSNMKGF
T5 sequence (Q96SW2 whole entry): as the sequence (Q96SW2 whole entry) above
T5 sequence (Q16531 whole entry partner): as the sequence (Q16531 whole entry partner) above
T4 sequence (Q13422 whole entry): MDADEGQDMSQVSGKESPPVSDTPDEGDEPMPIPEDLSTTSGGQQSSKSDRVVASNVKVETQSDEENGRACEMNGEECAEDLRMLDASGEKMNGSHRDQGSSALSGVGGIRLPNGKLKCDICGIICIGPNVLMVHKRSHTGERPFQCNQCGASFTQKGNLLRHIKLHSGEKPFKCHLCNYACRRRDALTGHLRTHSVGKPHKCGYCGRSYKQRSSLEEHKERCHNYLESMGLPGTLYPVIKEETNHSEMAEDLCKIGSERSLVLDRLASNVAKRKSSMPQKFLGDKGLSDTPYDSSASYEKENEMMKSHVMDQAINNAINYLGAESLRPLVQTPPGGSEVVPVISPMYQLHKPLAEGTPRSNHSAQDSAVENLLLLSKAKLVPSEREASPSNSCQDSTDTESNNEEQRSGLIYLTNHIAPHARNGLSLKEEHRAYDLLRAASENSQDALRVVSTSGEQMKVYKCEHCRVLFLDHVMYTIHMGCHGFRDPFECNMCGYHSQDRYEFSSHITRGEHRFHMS
T4 sequence (Q96SW2 whole entry): as the sequence (Q96SW2 whole entry) above
T4 sequence (Q16531 whole entry partner): as the sequence (Q16531 whole entry partner) above
T6 sequence (Q9UKS7 whole entry): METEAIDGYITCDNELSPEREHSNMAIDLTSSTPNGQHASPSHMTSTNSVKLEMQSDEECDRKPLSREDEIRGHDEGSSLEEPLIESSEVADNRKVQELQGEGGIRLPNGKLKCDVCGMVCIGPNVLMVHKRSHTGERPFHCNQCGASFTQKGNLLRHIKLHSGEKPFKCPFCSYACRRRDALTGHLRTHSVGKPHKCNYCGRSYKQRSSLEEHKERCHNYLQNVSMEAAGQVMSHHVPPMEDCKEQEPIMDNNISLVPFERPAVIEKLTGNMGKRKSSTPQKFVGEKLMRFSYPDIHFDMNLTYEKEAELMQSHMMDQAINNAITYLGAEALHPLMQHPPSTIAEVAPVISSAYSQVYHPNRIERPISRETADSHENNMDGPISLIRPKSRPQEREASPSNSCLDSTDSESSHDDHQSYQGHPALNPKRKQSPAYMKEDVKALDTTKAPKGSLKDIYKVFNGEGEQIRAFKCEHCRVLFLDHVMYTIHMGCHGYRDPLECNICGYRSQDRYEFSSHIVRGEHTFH
T6 sequence (Q96SW2 whole entry): as the sequence (Q96SW2 whole entry) above
T6 sequence (Q16531 whole entry partner): as the sequence (Q16531 whole entry partner) above

Compound	GSPT1 substrate protein remaining % (GSPT1)	IC50 (MM.1S cells) [nM]	IKZF3 substrate protein remaining % (IKZF3)	WEE1 substrate protein remaining % (WEE1)	IKZF1 substrate protein remaining % (IKZF1)	CK1α substrate protein remaining % (CK1α)	IKZF2 substrate protein remaining % (IKZF2)
Cc1ccc(Sc2ccccc2N2CCN(Cc3ccc4c(c3)CN(N3CCC(=O)NC3=O)C4=O)CC2)c(C)c1 [GT-04867, 1-(5-((4-(2-((2,4-dimethylphenyl)thio)phenyl)piperazin-1-yl)methyl)-1-oxoisoindolin-2-yl)dihydropyrimidine-2,4(1H,3H)-dione]	A (0% ≤ substrate protein remaining % ≤80%)	500 to 1000	B (80%< substrate protein remaining % ≤100%)	B (80%< substrate protein remaining % ≤100%)	A (0% ≤ substrate protein remaining % ≤80%)	B (80%< substrate protein remaining % ≤100%)	B (80%< substrate protein remaining % ≤100%)
O=C1CCN(N2Cc3cc(CN4CC=C(c5ccoc5)CC4)ccc3C2=O)C(=O)N1 [GT-04875, 1-(5-((4-(furan-3-yl)-3,6-dihydropyridin-1(2H)-yl)methyl)-1-oxoisoindolin-2-yl)dihydropyrimidine-2,4(1H,3H)-dione]	A (0% ≤ substrate protein remaining % ≤80%)	300 to 500	B (80%< substrate protein remaining % ≤100%)	A (0% ≤ substrate protein remaining % ≤80%)	B (80%< substrate protein remaining % ≤100%)	B (80%< substrate protein remaining % ≤100%)	B (80%< substrate protein remaining % ≤100%)
O=C1CCN(N2Cc3cc(CN4CCN(C(c5ccc(F)cc5)c5ccc(F)cc5)CC4)ccc3C2=O)C(=O)N1 [GT-04894, 1-(5-((4-(bis(4-fluorophenyl)methyl)piperazin-1-yl)methyl)-1-oxoisoindolin-2-yl)dihydropyrimidine-2,4(1H,3H)-dione]	A (0% ≤ substrate protein remaining % ≤80%)	500 to 1000	B (80%< substrate protein remaining % ≤100%)	A (0% ≤ substrate protein remaining % ≤80%)	A (0% ≤ substrate protein remaining % ≤80%)	B (80%< substrate protein remaining % ≤100%)	A (0% ≤ substrate protein remaining % ≤80%)
CC1(C)CCC(CN2CCN(Cc3ccc4c(c3)CN(N3CCC(=O)NC3=O)C4=O)CC2)=C(c2ccc(Cl)cc2)C1 [GT-04944, 1-(5-((4-((4′-chloro-5,5-dimethyl-3,4,5,6-tetrahydro-[1,1′-biphenyl]-2-yl)methyl)piperazin-1-yl)methyl)-1-oxoisoindolin-2-yl)dihydropyrimidine-2,4(1H,3H)-dione]	A (0% ≤ substrate protein remaining % ≤80%)	500 to 1000	B (80%< substrate protein remaining % ≤100%)	B (80%< substrate protein remaining % ≤100%)	B (80%< substrate protein remaining % ≤100%)	B (80%< substrate protein remaining % ≤100%)	B (80%< substrate protein remaining % ≤100%)
O=C1CCN(N2Cc3cc(CN4CCN(c5cccc(Cl)n5)CC4)ccc3C2=O)C(=O)N1 [GT-05126, 1-(5-((4-(6-chloropyridin-2-yl)piperazin-1-yl)methyl)-1-oxoisoindolin-2-yl)dihydropyrimidine-2,4(1H,3H)-dione]	A (0% ≤ substrate protein remaining % ≤80%)	300 to 500	A (0% ≤ substrate protein remaining % ≤80%)	A (0% ≤ substrate protein remaining % ≤80%)	A (0% ≤ substrate protein remaining % ≤80%)	A (0% ≤ substrate protein remaining % ≤80%)	A (0% ≤ substrate protein remaining % ≤80%)
O=C1CCN(N2Cc3cc(CN4CCN(c5ccc(Cl)cn5)CC4)ccc3C2=O)C(=O)N1 [GT-05127, 1-(5-((4-(5-chloropyridin-2-yl)piperazin-1-yl)methyl)-1-oxoisoindolin-2-yl)dihydropyrimidine-2,4(1H,3H)-dione]	A (0% ≤ substrate protein remaining % ≤80%)	500 to 1000	A (0% ≤ substrate protein remaining % ≤80%)	A (0% ≤ substrate protein remaining % ≤80%)	A (0% ≤ substrate protein remaining % ≤80%)	A (0% ≤ substrate protein remaining % ≤80%)	B (80%< substrate protein remaining % ≤100%)
N#Cc1ccc(N2CCN(Cc3ccc(COc4cccc5c4CN(N4CCC(=O)NC4=O)C5=O)cc3)CC2)c(F)c1 [GT-06132, 4-(4-(4-(((2-(2,4-dioxotetrahydropyrimidin-1(2H)-yl)-1-oxoisoindolin-4-yl)oxy)methyl)benzyl)piperazin-1-yl)-3-fluorobenzonitrile]	–	100 to 300	–	–	–	–	–
O=C1CCN(N2C(=O)c3ccc(CN4CCN(c5nc(Cl)nc6ccsc56)CC4)cc3C2=O)C(=O)N1 [GT-08453, 5-((4-(2-chlorothieno[3,2-d]pyrimidin-4-yl)piperazin-1-yl)methyl)-2-(2,4-dioxotetrahydropyrimidin-1(2H)-yl)isoindoline-1,3-dione]	A (0% ≤ substrate protein remaining % ≤80%)	–	A (0% ≤ substrate protein remaining % ≤80%)	B (80%< substrate protein remaining % ≤100%)	A (0% ≤ substrate protein remaining % ≤80%)	A (0% ≤ substrate protein remaining % ≤80%)	B (80%< substrate protein remaining % ≤100%)
O=C1CCN(N2C(=O)c3ccc(CN4CCN(c5nc(N6CCOCC6)nc6ccsc56)CC4)cc3C2=O)C(=O)N1 [GT-08455, 2-(2,4-dioxotetrahydropyrimidin-1(2H)-yl)-5-((4-(2-morpholinothieno[3,2-d]pyrimidin-4-yl)piperazin-1-yl)methyl)isoindoline-1,3-dione]	A (0% ≤ substrate protein remaining % ≤80%)	–	A (0% ≤ substrate protein remaining % ≤80%)	B (80%< substrate protein remaining % ≤100%)	B (80%< substrate protein remaining % ≤100%)	A (0% ≤ substrate protein remaining % ≤80%)	B (80%< substrate protein remaining % ≤100%)
Cc1nc(C2=CCN(Cc3ccc4c(c3)C(=O)N(N3CCC(=O)NC3=O)C4=O)CC2)c2c(-c3ccccc3)csc2n1 [GT-08484, 2-(2,4-dioxotetrahydropyrimidin-1(2H)-yl)-5-((4-(2-methyl-5-phenylthieno[2,3-d]pyrimidin-4-yl)-3,6-dihydropyridin-1(2H)-yl)methyl)isoindoline-1,3-dione]	A (0% ≤ substrate protein remaining % ≤80%)	–	A (0% ≤ substrate protein remaining % ≤80%)	A (0% ≤ substrate protein remaining % ≤80%)	A (0% ≤ substrate protein remaining % ≤80%)	A (0% ≤ substrate protein remaining % ≤80%)	A (0% ≤ substrate protein remaining % ≤80%)
O=C1CCN(N2Cc3cc(CN4CCN(c5nc(N6CCNCC6)c6sccc6n5)CC4)ccc3C2=O)C(=O)N1 [GT-08949, 1-(1-oxo-5-((4-(4-(piperazin-1-yl)thieno[3,2-d]pyrimidin-2-yl)piperazin-1-yl)methyl)isoindolin-2-yl)dihydropyrimidine-2,4(1H,3H)-dione]	A (0% ≤ substrate protein remaining % ≤80%)	–	B (80%< substrate protein remaining % ≤100%)	B (80%< substrate protein remaining % ≤100%)	B (80%< substrate protein remaining % ≤100%)	B (80%< substrate protein remaining % ≤100%)	B (80%< substrate protein remaining % ≤100%)
